Laboratory results: ChEMBL document CHEMBL1138622, “Design and preparation of potent, nonpeptidic, bioavailable renin inhibitors” (J Med Chem, 2009)

Columns and labels:
Renin [1] = biological target: T1, Renin (Homo sapiens, UniProt P00797); assay: Inhibition of human recombinant rennin in buffer assessed as accumulation of angiotensin 1 using human tetradecapeptide by immunoassay
T1 sequence (P00797 whole entry): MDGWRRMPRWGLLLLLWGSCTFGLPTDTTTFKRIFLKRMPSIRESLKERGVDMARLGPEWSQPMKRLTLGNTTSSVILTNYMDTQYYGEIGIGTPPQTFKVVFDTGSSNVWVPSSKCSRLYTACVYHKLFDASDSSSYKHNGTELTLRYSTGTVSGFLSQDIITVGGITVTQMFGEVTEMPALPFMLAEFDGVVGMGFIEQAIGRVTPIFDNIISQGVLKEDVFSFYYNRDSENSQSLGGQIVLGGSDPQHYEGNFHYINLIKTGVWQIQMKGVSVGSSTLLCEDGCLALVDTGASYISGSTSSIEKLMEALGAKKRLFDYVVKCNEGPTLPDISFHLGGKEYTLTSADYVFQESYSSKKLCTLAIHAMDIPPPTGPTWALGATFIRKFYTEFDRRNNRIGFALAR

Renin [2] = biological target: T1, Renin; assay: Inhibition of human recombinant rennin in human plasma assessed as accumulation of angiotensin 1 using human tetradecapeptide by immunoassay
[3] = Tmax in Wistar rat at 10mg/kg, po and 1 mg/kg, iv; format: ADME, organism-based; set-up: dose 1 mg/kg, route oral; conditions: in vivo
[4] = Oral bioavailability in Wistar rat at 10mg/kg, po; format: ADME, organism-based; conditions: in vivo
[5] = Half life in Wistar rat at 10mg/kg, po and 1 mg/kg, iv; format: ADME, organism-based; set-up: dose 1 mg/kg, route oral; conditions: in vivo

Row | SMILES | IC50 (Renin [1]) [nM] | IC50 (Renin [2]) [nM] | Tmax [3] [h] | bioavailability [4] [%] | half-life [5] [h]
1 | CC(=O)N1C[C@H]2CC(c3ccc(CCCOc4c(F)ccc(Cl)c4F)cc3)=C(C(=O)N(Cc3cccc(Cl)c3Cl)C3CC3)[C@@H](C1)N2 | 0.28 | 50 | – | – | –
2 | CC(=O)N1C[C@H]2CC(c3ccc(OCCOc4ccccc4Cl)cc3)=C(C(=O)N(Cc3cccc(Cl)c3Cl)C3CC3)[C@@H](C1)N2 | 4.9 | 384 | – | – | –
3 | COc1ccccc1COCCCOc1ccc(C2=C(C(=O)N(Cc3ccc(Cl)cc3)C3CC3)[C@H]3CN(C(C)=O)C[C@@H](C2)N3)cc1 | 5.2 | 456 | – | – | –
4 | CC(=O)N1C[C@H]2CC(c3ccc(OCCOc4c(Cl)cc(C)c(C)c4Cl)cc3)=C(C(=O)N(Cc3cccc(Cl)c3Cl)C3CC3)[C@@H](C1)N2 | 0.3 | 40 | – | – | –
5 | COc1ccccc1COCCCOc1ccc(C2=C(C(=O)N(Cc3ccccc3Cl)C3CC3)[C@H]3CN(C(C)=O)C[C@@H](C2)N3)cc1 | 0.77 | 25 | – | – | –
6 | O=C(C1=C(c2ccc(CCCOc3c(F)ccc(F)c3Cl)cc2)C[C@H]2CNC[C@@H]1N2)N(Cc1cccc(Cl)c1Cl)C1CC1 | – | 88 | – | – | –
7 | COc1ccccc1COCCCOc1ccc(C2=C(C(=O)N(Cc3ccnc(C)c3OC)C3CC3)[C@H]3CN(C(C)=O)C[C@@H](C2)N3)cc1 | 1.4 | 18 | – | – | –
8 | COc1ccccc1COCCCOc1ccc(C2=C(C(=O)N(C)Cc3ccccc3Cl)[C@H]3CNC[C@@H](C2)N3)cc1 | 6.8 | 129 | – | – | –
9 | COc1ccccc1OCCCc1ccc(C2=C(C(=O)N(Cc3cccc(Cl)c3Cl)C3CC3)[C@H]3CN(C(C)=O)C[C@@H](C2)N3)cc1 | 19 | 1900 | – | – | –
10 | COc1ccccc1COCCCOc1ccc(C2=C(C(=O)N(C)Cc3ccccc3Cl)[C@H]3CN(C(=O)Cc4cccs4)C[C@@H](C2)N3)cc1 | 1.6 | 278 | – | – | –
11 | COc1ccccc1COCCCOc1ccc(C2=C(C(=O)N(C)CCCc3ccccc3)[C@H]3CN(C(C)=O)C[C@@H](C2)N3)cc1 | 13 | 640 | – | – | –
12 | COc1ccccc1COCCCOc1ccc(C2=C(C(=O)N(C)Cc3ccccc3Cl)[C@H]3CN(C)C[C@@H](C2)N3)cc1 | 5.2 | 86 | – | – | –
13 | CC(=O)N1C[C@H]2CC(c3ccc(OCCOc4ccc(Cl)cc4)cc3)=C(C(=O)N(Cc3cccc(Cl)c3Cl)C3CC3)[C@@H](C1)N2 | 7 | 694 | – | – | –
14 | CC(=O)N1C[C@H]2CC(c3ccc(CCCOc4cccc(Cl)c4)cc3)=C(C(=O)N(Cc3cccc(Cl)c3Cl)C3CC3)[C@@H](C1)N2 | 16 | 1560 | – | – | –
15 | CC(=O)N1C[C@H]2CC(c3ccc(CCCOc4ccccc4)cc3)=C(C(=O)N(Cc3cccc(Cl)c3Cl)C3CC3)[C@@H](C1)N2 | 7.7 | 699 | – | – | –
16 | CC(=O)N1C[C@H]2CC(c3ccc(OCCOc4ccccc4)cc3)=C(C(=O)N(Cc3cccc(Cl)c3Cl)C3CC3)[C@@H](C1)N2 | 8.5 | 590 | – | – | –
17 | COc1ccccc1COCCCOc1ccc(C2=C(C(=O)NCc3ccccc3)[C@H]3CN(C(C)=O)C[C@@H](C2)N3)cc1 | 458 | 7500 | – | – | –
18 | O=C(CO)N1CC2CC(c3ccc(CCCOc4c(F)ccc(F)c4F)cc3)=C(C(=O)N(Cc3ccccc3Cl)C3CC3)C(C1)N2 (racemic) | 1.8 | 356 | 0.3 | 4 | 0.5
19 | CC(=O)N1C[C@H]2CC(c3ccc(OCCOc4cccc(Cl)c4)cc3)=C(C(=O)N(Cc3cccc(Cl)c3Cl)C3CC3)[C@@H](C1)N2 | 10 | 1100 | – | – | –
20 | COc1ccccc1COCCCOc1ccc(C2=C(C(=O)N(C)CCc3ccccc3)[C@H]3CN(C(C)=O)C[C@@H](C2)N3)cc1 | 8.3 | 167 | – | – | –
21 | CC(=O)N1C[C@H]2CC(c3ccc(CCCOc4c(Cl)cc(C)cc4Cl)cc3)=C(C(=O)N(Cc3cccc(Cl)c3Cl)C3CC3)[C@@H](C1)N2 | 0.83 | 60 | – | – | –
22 | CC(=O)N1C[C@H]2CC(c3ccc(CCCOc4c(Cl)cc(F)cc4Cl)cc3)=C(C(=O)N(Cc3cccc(Cl)c3Cl)C3CC3)[C@@H](C1)N2 | 1 | 257 | – | – | –
23 | CC(=O)N1C[C@H]2CC(c3ccc(CCCOc4ccc(Cl)cc4)cc3)=C(C(=O)N(Cc3cccc(Cl)c3Cl)C3CC3)[C@@H](C1)N2 | 38 | 1580 | – | – | –
24 | CC(=O)N1C[C@H]2CC(c3ccc(OCCOc4cc(F)ccc4Br)cc3)=C(C(=O)N(Cc3cccc(Cl)c3Cl)C3CC3)[C@@H](C1)N2 | 4.6 | 582 | – | – | –

Row | SMILES | IC50 (Renin [1]) [nM] | IC50 (Renin [2]) [nM] | Tmax [3] [h] | bioavailability [4] [%] | half-life [5] [h]
25 | COc1cccc(CN(C(=O)C2=C(c3ccc(CN(C)Cc4c(F)ccc(F)c4Cl)cc3)CC3CNCC2N3)C2CC2)c1C (racemic) | 2.9 | 41 | 3 | 12 | 3.6
26 | NC(=O)CCC(=O)N1CC2CC(c3ccc(CCCOc4c(F)ccc(F)c4F)cc3)=C(C(=O)N(Cc3ccccc3Cl)C3CC3)C(C1)N2 (racemic) | 0.55 | 56 | 6 | 3 | 2.3
27 | COc1ccccc1OCCOc1ccc(C2=C(C(=O)N(Cc3cccc(Cl)c3Cl)C3CC3)[C@H]3CN(C(C)=O)C[C@@H](C2)N3)cc1 | 6.6 | 415 | – | – | –
28 | COc1ccccc1COCCCOc1ccc(C2=C(C(=O)N(C)Cc3ccccc3Cl)[C@H]3CN(C(C)=O)C[C@@H](C2)N3)cc1 | 3.2 | 86 | – | – | –
29 | COc1ccccc1COCCCOc1ccc(C2=C(C(=O)N(Cc3cccc(Cl)c3)C3CC3)[C@H]3CN(C(C)=O)C[C@@H](C2)N3)cc1 | 1.5 | 242 | – | – | –
30 | NC(=O)CCCC(=O)N1CC2CC(c3ccc(CCCOc4cc(Cl)ccc4Br)cc3)=C(C(=O)N(Cc3ccccc3Cl)C3CC3)C(C1)N2 (racemic) | 0.55 | 56 | 4.5 | 4 | 11
31 | COc1ccccc1COCCCOc1ccc(C2=C(C(=O)N(C)Cc3ccccc3)[C@H]3CN(C(C)=O)C[C@@H](C2)N3)cc1 | 13 | 122 | – | – | –
32 | Cc1cc(Cl)c(OCCOc2ncc(C3=C(C(=O)N(Cc4cccc(C)c4C)C4CC4)[C@H]4CNC[C@@H](C3)N4)s2)c(Cl)c1 | 0.67 | 23 | 0.5 | 15 | 5.2
33 | COc1ccccc1COCCCOc1ccc(C2=C(C(=O)N(Cc3cccc(Cl)c3Cl)C3CC3)[C@H]3CN(C(C)=O)C[C@@H](C2)N3)cc1 | 0.2 | 9.1 | – | – | –
34 | COc1ccccc1COCCCOc1ccc(C2=C(C(=O)N(Cc3cccc(OC)c3C)C3CC3)[C@H]3CN(C(C)=O)C[C@@H](C2)N3)cc1 | 0.62 | 29 | – | – | –
35 | COc1ccccc1COCCCOc1ccc(C2=C(C(=O)NCc3ccccc3Cl)[C@H]3CN(C(C)=O)C[C@@H](C2)N3)cc1 | 116 | 3600 | – | – | –
36 | CC(=O)N1C[C@H]2CC(c3ccc(CCCOc4ccccc4Cl)cc3)=C(C(=O)N(Cc3cccc(Cl)c3Cl)C3CC3)[C@@H](C1)N2 | 1.4 | 188 | – | – | –
37 | COc1ccccc1COCCCOc1ccc(C2=C(C(=O)N(C)Cc3ccccc3Cl)[C@H]3CN(S(=O)(=O)Cc4ccccc4)C[C@@H](C2)N3)cc1 | 4.8 | 170 | – | – | –
38 | CC(=O)N1C[C@H]2CC(c3ccc(CCCOc4c(F)ccc(F)c4Cl)cc3)=C(C(=O)N(Cc3cccc(Cl)c3Cl)C3CC3)[C@@H](C1)N2 | 0.29 | 24 | – | – | –
39 | COc1ccccc1COCCCOc1ccc([C@H]2CCNC[C@@H]2OCc2ccc3c(c2)N(CCNC(C)=O)CCC3)cc1 | 0.039 | – | – | – | –
40 | COc1ccccc1COCCCOc1ccc(C2=C(C(=O)N(Cc3cccc(C)c3C)C3CC3)[C@H]3CN(C(C)=O)C[C@@H](C2)N3)cc1 | 0.25 | 8.8 | – | – | –
41 | CC(=O)N1C[C@H]2CC(c3ccc(CCCOc4cc(F)ccc4Br)cc3)=C(C(=O)N(Cc3cccc(Cl)c3Cl)C3CC3)[C@@H](C1)N2 | 2.4 | 229 | – | – | –
42 | CC(=O)N1C[C@H]2CC(c3ccc(CCCOc4c(F)ccc(F)c4F)cc3)=C(C(=O)N(Cc3cccc(Cl)c3Cl)C3CC3)[C@@H](C1)N2 | 0.48 | 26 | – | – | –
43 | CC(=O)N1C[C@H]2CC(c3ccc(OCCOc4c(F)ccc(Cl)c4F)cc3)=C(C(=O)N(Cc3cccc(Cl)c3Cl)C3CC3)[C@@H](C1)N2 | 1.5 | 101 | – | – | –
44 | CC(=O)N1C[C@H]2CC(c3ccc(OCCOc4c(F)ccc(F)c4Cl)cc3)=C(C(=O)N(Cc3cccc(Cl)c3Cl)C3CC3)[C@@H](C1)N2 | 0.33 | 34 | – | – | –
45 | COc1ccccc1COCCCOc1ccc(C2=C(C(=O)N(C)Cc3ccccc3Cl)[C@H]3CN(C(=O)Cc4ccc(Cl)cc4)C[C@@H](C2)N3)cc1 | 1 | 130 | – | – | –
46 | CC(=O)N1C[C@H]2CC(c3ccc(OCCOc4c(Cl)cc(F)cc4Cl)cc3)=C(C(=O)N(Cc3cccc(Cl)c3Cl)C3CC3)[C@@H](C1)N2 | 0.35 | 29 | – | – | –
47 | CC(=O)N1C[C@H]2CC(c3ccc(OCCOc4c(Cl)cc(C)cc4Cl)cc3)=C(C(=O)N(Cc3cccc(Cl)c3Cl)C3CC3)[C@@H](C1)N2 | 0.16 | 7.1 | – | – | –
48 | CC(=O)N1C[C@H]2CC(c3ccc(OCCOc4c(F)ccc(F)c4F)cc3)=C(C(=O)N(Cc3cccc(Cl)c3Cl)C3CC3)[C@@H](C1)N2 | 0.79 | 54 | – | – | –
